Measured values reported in patent US11180474B2 (BRISTOL-MYERS SQUIBB COMPANY, priority 2016, dated 2021).

What was measured:
human TLR7 = target: T1, human TLR7 (Homo sapiens, UniProt Q9NYK1); experiment: TLR7 inhibition reporter assay (HEK-Blue cells, SEAP reporter, gardiquimod stimulation); type: cell-based; settings: HEK-Blue cells overexpressing human TLR7, gardiquimod 7.5 μM
T1 construct: host or cells: HEK-Blue cells
T1 sequence (Q9NYK1 27-1049): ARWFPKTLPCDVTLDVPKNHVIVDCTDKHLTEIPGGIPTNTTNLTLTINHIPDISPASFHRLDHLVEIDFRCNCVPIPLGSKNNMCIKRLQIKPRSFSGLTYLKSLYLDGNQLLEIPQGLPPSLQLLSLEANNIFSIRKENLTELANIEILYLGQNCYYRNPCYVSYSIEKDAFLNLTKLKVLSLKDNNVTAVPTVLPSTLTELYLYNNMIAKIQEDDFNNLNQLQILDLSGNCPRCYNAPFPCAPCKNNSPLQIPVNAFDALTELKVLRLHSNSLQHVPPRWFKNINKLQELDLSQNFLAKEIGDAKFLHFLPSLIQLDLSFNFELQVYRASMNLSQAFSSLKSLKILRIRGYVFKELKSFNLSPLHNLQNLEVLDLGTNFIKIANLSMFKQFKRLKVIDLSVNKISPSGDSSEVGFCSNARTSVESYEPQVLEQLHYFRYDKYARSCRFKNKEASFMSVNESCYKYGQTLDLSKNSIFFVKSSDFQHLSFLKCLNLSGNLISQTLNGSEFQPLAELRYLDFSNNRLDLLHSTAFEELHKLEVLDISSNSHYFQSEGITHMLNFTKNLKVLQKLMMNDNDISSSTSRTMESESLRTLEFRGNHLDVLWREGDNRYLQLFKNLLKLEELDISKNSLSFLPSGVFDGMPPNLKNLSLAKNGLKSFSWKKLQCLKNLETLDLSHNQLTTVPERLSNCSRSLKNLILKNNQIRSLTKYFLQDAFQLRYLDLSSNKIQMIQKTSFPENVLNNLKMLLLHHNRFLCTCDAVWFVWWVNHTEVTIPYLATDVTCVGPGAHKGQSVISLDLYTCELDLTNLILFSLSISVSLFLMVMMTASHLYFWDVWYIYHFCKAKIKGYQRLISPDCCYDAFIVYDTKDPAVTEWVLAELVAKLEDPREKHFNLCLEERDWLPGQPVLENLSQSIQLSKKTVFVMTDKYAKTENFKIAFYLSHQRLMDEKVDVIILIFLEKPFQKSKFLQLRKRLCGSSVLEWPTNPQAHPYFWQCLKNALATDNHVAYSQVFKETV
In short: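 Cells (15000/well for TLR7, 20,000 for TLR8) were treated with compounds over 0.05 nM-50 μM final. After 22 h at 37° C, 5% CO2, SEAP was measured with HEK-Blue Detection reagent; percent inhibition was taken as reduction of agonist-plus-DMSO signal relative to a known inhibitor.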

human TLR9 = target: T2, human TLR9 (Homo sapiens, UniProt Q9NR96); experiment: TLR9 inhibition reporter assay (HEK-Blue cells, SEAP reporter, ODN2006 stimulation); type: cell-based; settings: HEK-Blue cells overexpressing human TLR9, ODN2006 5 nM
T2 construct: host or cells: HEK-Blue cells
T2 sequence (Q9NR96 26-1032): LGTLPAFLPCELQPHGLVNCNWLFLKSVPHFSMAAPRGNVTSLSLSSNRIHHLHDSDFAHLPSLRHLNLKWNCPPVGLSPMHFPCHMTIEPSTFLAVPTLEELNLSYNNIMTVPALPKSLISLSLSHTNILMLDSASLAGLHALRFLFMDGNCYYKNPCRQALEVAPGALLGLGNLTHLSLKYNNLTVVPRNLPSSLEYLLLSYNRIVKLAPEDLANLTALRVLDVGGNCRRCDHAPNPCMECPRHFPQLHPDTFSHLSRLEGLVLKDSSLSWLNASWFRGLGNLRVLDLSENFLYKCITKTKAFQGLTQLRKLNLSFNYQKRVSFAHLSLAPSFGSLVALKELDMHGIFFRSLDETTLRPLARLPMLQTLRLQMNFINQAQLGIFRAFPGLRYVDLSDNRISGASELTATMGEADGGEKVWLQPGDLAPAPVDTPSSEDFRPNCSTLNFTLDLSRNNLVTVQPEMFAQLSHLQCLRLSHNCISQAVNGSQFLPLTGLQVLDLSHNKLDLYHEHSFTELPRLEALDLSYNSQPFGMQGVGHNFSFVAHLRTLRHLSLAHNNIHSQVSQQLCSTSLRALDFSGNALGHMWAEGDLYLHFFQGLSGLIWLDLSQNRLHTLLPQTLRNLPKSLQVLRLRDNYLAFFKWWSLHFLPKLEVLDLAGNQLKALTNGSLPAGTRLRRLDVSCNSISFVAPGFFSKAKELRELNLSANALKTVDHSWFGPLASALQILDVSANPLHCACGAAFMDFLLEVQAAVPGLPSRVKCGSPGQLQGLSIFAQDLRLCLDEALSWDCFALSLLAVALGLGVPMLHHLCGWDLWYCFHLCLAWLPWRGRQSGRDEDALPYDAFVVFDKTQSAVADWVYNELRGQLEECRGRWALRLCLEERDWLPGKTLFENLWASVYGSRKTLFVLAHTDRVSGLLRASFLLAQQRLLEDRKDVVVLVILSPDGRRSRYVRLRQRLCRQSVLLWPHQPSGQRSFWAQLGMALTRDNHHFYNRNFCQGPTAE
In short: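 Human TLR7/8/9 HEK-Blue reporter lines; dose range 0.05 nM–50 μM; 30 min RT preincubation; stimulus gardiquimod 7.5 μM / R848 15.9 μM / ODN2006 5 nM respectively; 22 h, 37 °C; SEAP detected colorimetrically.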

IC50 (human TLR7) [nM] | IC50 (human TLR9) [nM] | Structure (SMILES)
22 | 914 | COc1ccc(-c2[nH]c3ccc(C4CCN(C(=O)CCN(C)C)CC4)cc3c2CC(F)(F)F)cc1OC [Example 340, 1-(4-(2-(3,4-dimethoxyphenyl)-3-(2,2,2-trifluoroethyl)-1H-indol-5-yl)piperidin-1-yl)-3-(dimethylamino)propan-1-one]
174 | 40800 | COc1ccc(-c2[nH]c3ccc(C4CCN(C(=O)CCCNC(C)=O)CC4)cc3c2CC(F)(F)F)cc1OC [Example 343, N-(4-(4-(2-(3,4-dimethoxyphenyl)-3-(2,2,2-trifluoroethyl)-1H-indol-5-yl)piperidin-1-yl)-4-oxobutyl)acetamide]
213 | 2940 | COc1ccc(-c2[nH]c3ccc(C4CCN(C(=O)CCC(=O)N(C)C)CC4)cc3c2CC(F)(F)F)cc1OC [Example 346, 4-(4-(2-(3,4-dimethoxyphenyl)-3-(2,2,2-trifluoroethyl)-1H-indol-5-yl)piperidin-1-yl)-N,N-dimethyl-4-oxobutanamide]
155 | 39100 | COc1ccc(-c2[nH]c3ccc(C4CCN(C(=O)CS(C)(=O)=O)CC4)cc3c2CC(F)(F)F)cc1OC [Example 347, 1-(4-(2-(3,4-dimethoxyphenyl)-3-(2,2,2-trifluoroethyl)-1H-indol-5-yl)piperidin-1-yl)-2-(methylsulfonyl)ethan-1-one]
624 | ≥ 50000 | COc1ccc(-c2[nH]c3ccc(C4CCN(C(=O)CCC(F)(F)F)CC4)cc3c2CC(F)(F)F)cc1OC [Example 350, 1-(4-(2-(3,4-dimethoxyphenyl)-3-(2,2,2-trifluoroethyl)-1H-indol-5-yl)piperidin-1-yl)-4,4,4-trifluorobutan-1-one]
17 | 1560 | COc1ccc(-c2[nH]c3ccc(C4CCN(C(=O)CCCN(C)C)CC4)cc3c2CC(F)(F)F)cc1OC [Example 351, 1-(4-(2-(3,4-dimethoxyphenyl)-3-(2,2,2-trifluoroethyl)-1H-indol-5-yl)piperidin-1-yl)-4-(dimethylamino)butan-1-one]
458 | 28900 | COc1ccc(-c2[nH]c3ccc(C4CCN(C(=O)C[C@H](C)O)CC4)cc3c2CC(F)(F)F)cc1OC [Example 352, (S)-1-(4-(2-(3,4-dimethoxyphenyl)-3-(2,2,2-trifluoroethyl)-1H-indol-5-yl)piperidin-1-yl)-3-hydroxybutan-1-one]
229 | 40000 | COc1ccc(-c2[nH]c3ccc(C4CCN(C(=O)C[C@@H](C)O)CC4)cc3c2CC(F)(F)F)cc1OC [Example 353, (R)-1-(4-(2-(3,4-dimethoxyphenyl)-3-(2,2,2-trifluoroethyl)-1H-indol-5-yl)piperidin-1-yl)-3-hydroxybutan-1-one]
22 | 2150 | COc1ccc(-c2[nH]c3ccc(C4CCN(C(=O)CN(C)C)CC4)cc3c2CC(F)(F)F)cc1OC [Example 354, 1-(4-(2-(3,4-dimethoxyphenyl)-3-(2,2,2-trifluoroethyl)-1H-indol-5-yl)piperidin-1-yl)-2-(dimethylamino)ethan-1-one]
19 | 2280 | COc1ccc(-c2[nH]c3ccc(C4CCN(C)CC4)cc3c2CC(F)(F)F)cc1OC [Example 355, 2-(3,4-dimethoxyphenyl)-5-(1-methylpiperidin-4-yl)-3-(2,2,2-trifluoroethyl)-1H-indole]
618 | ≥ 50000 | CCNC(=O)N1CCC(c2ccc3[nH]c(-c4ccc(OC)c(OC)c4)c(CC(F)(F)F)c3c2)CC1 [Example 356, 4-(2-(3,4-dimethoxyphenyl)-3-(2,2,2-trifluoroethyl)-1H-indol-5-yl)-N-ethylpiperidine-1-carboxamide]

More lines, now with the values behind:

Structure (SMILES) | IC50 (human TLR7) [nM] | IC50 (human TLR9) [nM]
COc1ccc(-c2[nH]c3ccc(C4CCN(C(=O)Cc5nnn[nH]5)CC4)cc3c2CC(F)(F)F)cc1OC [Example 341, 1-(4-(2-(3,4-dimethoxyphenyl)-3-(2,2,2-trifluoroethyl)-1H-indol-5-yl)piperidin-1-yl)-2-(1H-tetrazol-5-yl)ethan-1-one] | 5030 | ≥ 50000
COc1ccc(-c2[nH]c3ccc(C4CCN(C(=O)Cc5cnccn5)CC4)cc3c2CC(F)(F)F)cc1OC [Example 342, 1-(4-(2-(3,4-dimethoxyphenyl)-3-(2,2,2-trifluoroethyl)-1H-indol-5-yl)piperidin-1-yl)-2-(pyrazin-2-yl)ethan-1-one] | 240 | 26400
COc1ccc(-c2[nH]c3ccc(C4CCN(C(=O)CCn5cccc5)CC4)cc3c2CC(F)(F)F)cc1OC [Example 344, 1-(4-(2-(3,4-dimethoxyphenyl)-3-(2,2,2-trifluoroethyl)-1H-indol-5-yl)piperidin-1-yl)-3-(1H-pyrrol-1-yl)propan-1-one] | 881 | ≥ 50000
COc1ccc(-c2[nH]c3ccc(C4CCN(C(=O)C5CCN(C(C)=O)CC5)CC4)cc3c2CC(F)(F)F)cc1OC [Example 345, 1-(4-(4-(2-(3,4-dimethoxyphenyl)-3-(2,2,2-trifluoroethyl)-1H-indol-5-yl)piperidine-1-carbonyl)piperidin-1-yl)ethan-1-one] | 256 | 25200
COc1ccc(-c2[nH]c3ccc(C4CCN(C(=O)CCc5cccnc5)CC4)cc3c2CC(F)(F)F)cc1OC [Example 348, 1-(4-(2-(3,4-dimethoxyphenyl)-3-(2,2,2-trifluoroethyl)-1H-indol-5-yl)piperidin-1-yl)-3-(pyridin-3-yl) propan-1-one] | 413 | 15300
COc1ccc(-c2[nH]c3ccc(C4CCN(C(=O)COc5cccnc5)CC4)cc3c2CC(F)(F)F)cc1OC [Example 349, 1-(4-(2-(3,4-dimethoxyphenyl)-3-(2,2,2-trifluoroethyl)-1H-indol-5-yl)piperidin-1-yl)-2-(pyridin-3-yloxy)ethan-1-one] | 291 | 9730
COc1ccc(-c2[nH]c3ccc(C4CCN(C(=O)NCCc5ccccc5)CC4)cc3c2CC(F)(F)F)cc1OC [Example 357, 4-(2-(3,4-dimethoxyphenyl)-3-(2,2,2-trifluoroethyl)-1H-indol-5-yl)-N-phenethylpiperidine-1-carboxamide] | 690 | ≥ 50000
COc1ccc(-c2[nH]c3ccc(C4CCN(C(=O)NCc5ccco5)CC4)cc3c2CC(F)(F)F)cc1OC [Example 358, 4-(2-(3,4-dimethoxyphenyl)-3-(2,2,2-trifluoroethyl)-1H-indol-5-yl)-N-(furan-2-ylmethyl)piperidine-1-carboxamide] | ≥ 50000 | ≥ 50000
